We go through 19 compounds from patent US11691981B2, “Heterocyclic compounds, preparation methods therefor, and methods of uses thereof” (INVENTISBIO CO., LTD., priority 2019, dated 2023).

The Papp A→B is how fast a substance crosses the layer from the apical side. In general, Papp B→A refers to how fast a substance crosses the layer from the basolateral side. What is called efflux ratio is the permeability from basolateral to apical divided by that in the opposite direction, in the common usage. A word on the IC50: it is the midpoint of a concentration-inhibition curve. Lower therefore signals inhibition by little substance.

In one data set the test system is P-glycoprotein (MDR1). The experiment in a line: P-glycoprotein substrate potential / permeability in MDR1-transfected MDCK cells. The format is in vitro ADME. The settings on record: dog, pH 7.4. Here is the method:
MDCK-MDR1 cells were seeded into 96-well HTS Transwell plate at the density of 5.45×10^5/cm^2. Cells were cultivated for 4-7 days before the transport assay. Transepithelial electrical resistance (TEER) of MDCK-MDR1 monolayer was measured before the experiment with the Millicell Epithelial Volt-Ohm measuring system.
Transport assay: Cell monolayers were pre-incubated in transport medium (TM, HBSS with 25 mM HEPES, pH 7.4) for 30 min at 37° C. After preincubation, the study was initiated by adding the test compound to the donor side and TM to the receiver side. Compound transport was assessed at 1 μM in two directions (apical, AP to basolateral, BL and BL to AP) and the study was carried out in the presence and absence of P-gp inhibitor verapamil in both AP and BL compartments. After two hours incubation, aliquots of 50 μL from donor or receiver side were removed and mixed with 4 volumes of acetonitrile containing internal standards (200 nM alprazolam, 200 nM labetalol, 2 μM ketoprofen). Samples were analyzed by UPLC-MS/MS. All incubations were performed in duplicate. After the transport experiment, Lucifer Yellow leakage was measured in a fluorescence plate reader at 485 nm excitation and 530 nm emission.
Data Analysis: All calculations were carried out using Microsoft Excel. Peak areas are determined from extracted ion chromatograms.
The apparent permeability coefficient (Papp), in units of centimeter per second, was calculated for MDCK-MDR1 drug transport assays using the following equation: […]
Where VA is the volume (in mL) in the acceptor well, Area is the surface area of the membrane (0.143 cm2 for Transwell-96 Well Permeable Supports), and time is the total transport time in seconds.
The efflux ratio was determined using the following equation: […]
Where Papp (B-A) indicates the apparent permeability coefficient in basolateral to apical direction, and Papp (A-B) indicates the apparent permeability coefficient in apical to basolateral direction.

A further data set deals with TGFβR1 (Homo sapiens (Human), UniProt P36897). Briefly: TGFβR1 kinase inhibition assay (ADP-Glo Kinase Assay). Particulars: 40 nM TGFβR1 in 2x enzyme mix, 5.4 μM ATP in 2x substrate mix, 120 min RT. The class given is biochemical. As for the experimental part:
TGFβR1 kinase assay was performed according to the instruction manual of the ADP-Glo™ Kinase Assay kit provided by Promega. Prepare 1× Kinase buffer (50 mM Tris pH7.5, 0.1% BSA, 10 mM MgCl2, 1 mM DTT). Before activation reaction was started, Compounds were dissolved in DMSO and make 100× solution with 3-fold serial dilution for a total of 10 concentrations. Transfer 50 nL compounds to 384-well plate according to plate map using the automated liquid handler. […] Add 5 μL ADP-Glo Reagent to terminate the kinase reaction and deplete the remaining ATP, incubate at RT for 60 minutes. Add 10 μL Kinase Detection Reagent to convert ADP to ATP and allow the newly synthesized ATP to be measured using a luciferin reaction, incubate at RT for 30 minutes. Collect luminescence data with Envision.
On the technique in general: In ADP-Glo the light output rises with the ADP produced.

The next data set deals with TGFβR2 (Homo sapiens (Human), UniProt P37173). Briefly: TGFβR2 kinase inhibition assay (ADP-Glo). The format is biochemical. The settings on record: 10 uM ATP, 120 min room temperature. Here is the method:
The TGFβR2 enzyme reaction was carried out as follows: 50 nL of compound in DMSO (or DMSO controls) were stamped into 384 white, low-volume plates. 2.5 μL of 2× enzyme solution (final enzyme concentration was 3 ng/uL in 40 mMTris, 7.5; 20 mM MgCl2; 0.1 mg/mL BSA; 1 mM DTT) was dispensed into assay plate. The plate was then sealed and spun at 1000 rpm for 30 s and incubated at room temperature for 10 min. Followed by addition of 2.5 μL of 2× substrate solution that contains both ATP (to make a final concentration of 10 uM) and TGFβR2 substrate (final concentration of 0.2 ug/uL). The plate was then sealed and spun at 1000 rpm for 30 s and the reaction was then incubated at room temperature for 120 min. After that 5 μL ADP-Glo™ Reagent was added into the assay wells to stop the reaction and deplete unconsumed ATP for 40 min at room temperature; then, 10 μL of Detection Reagent was added into the assay wells, followed by 40 min incubation to develop luminescence. The luminescence signal was then collected on Envision 2104 plate reader.

For the next data set, the system named is pooled human hepatocytes. Briefly: Human hepatocyte clearance study. The class given is in vitro ADME. The settings on record: human hepatocytes, 0.5×10^6 viable cells/mL, 120 min. Here is the method: (§1) The in vitro human hepatocyte clearance of compounds described here was studied using pooled human hepatocytes purchased from BioreclamationIVT (Westbury, N.Y., Cat #X008001, Lot #TQJ). The assay was conducted according to manufacturer's instruction. Briefly, 10 mM stock solutions of test compounds and positive control (Verapamil) were prepared in 100% DMSO. Thawing media (50 mL) used in the study consists of: 31 mL Williams E medium (GIBCO Cat #12551-032); 15 mL isotonic percoll (GE Healthcare Cat #17-0891-09); 500 uL 100× GlutaMax (GIBCO Cat #35050); 750 uL HEPES (GIBCO Cat #15630-080); 2.5 mL FBS (Corning Cat #35-076-CVR); 50 uL human insulin (GIBCO Cat #12585-014) and 5 uL dexamethasone (NICPBP). Incubation media is made of Williams E medium supplemented with 1× GlutaMax. Both thawing medium and incubation medium (serum-free) were placed in a 37° C. water bath for at least 15 minutes prior to use. Compound stock solutions were diluted to 100 μM by combining 198 μL of 50% acetonitrle/50% water and 2 μL of 10 mM stock solution. Verapamil was use as positive control in the assay. Vials of cryopreserved hepatocytes were removed from storage and thawed in a 37° C. water bath with gentle shaking. Contents of the vial were poured into the 50 mL thawing medium conical tube. Vials were centrifuged at 100 g for 10 minutes at room temperature. Thawing medium was aspirated and hepatocytes were re-suspended with serum-free incubation medium to yield ˜1.5×10^6 cells/mL. Hepatocyte viability and density were counted using a Trypan Blue exclusion, and then cells were diluted with serum-free incubation medium to a working cell density of 0.5×10^6 viable cells/mL. Then, a portion of the hepatocytes at 0.5×10^6 viable cells/mL was boiled for 5 minutes prior to adding to the plate as negative control to eliminate the enzymatic activity so that little or no substrate turnover should be observed. The boiled hepatocytes were used to prepare negative samples. Aliquots of 198 μL hepatocytes were dispensed into each well of a 96-well non-coated plate. The plate was placed in the incubator on an orbital shaker at 500 rpm for approximately 10 minutes. Aliquots of 2 μL of the 100 μM test compound or positive control were added into respective wells of the non-coated 96-well plate to start the reaction. This assay was performed in duplicate. The plate was incubated in the incubator on an orbital shaker at 500 rpm for the designated time points. Twenty-five microliter of contents were transferred and mixed with 6 volumes (150 μL) of cold acetonitrile with IS (200 nM imipramine, 200 nM labetalol and 200 nM diclofenac) to terminate the reaction at time points of 0, 15, 30, 60, 90 and 120 minutes. Samples were centrifuged at 3,220 g for 25 minutes and aliquots of 150 μL of the supernatants were used for LC-MS/MS analysis. For data analysis, all calculations were carried out using Microsoft Excel. Peak areas were determined from extracted ion chromatograms. The in vitro half-life (t1/2) of parent compound was determined by regression analysis of the percent parent disappearance vs. time curve. The in vitro half-life (in vitro ti) was determined from the slope value: in vitro t1/2=0.693/k. […] Scaling factors for in vivo intrinsic clearance prediction using human hepatocytes are listed as: liver weight (g liver/kg body weight): 25.7; hepatocyte concentration (10^6 cells/g liver): 99; scaling factor: 2544.3.

The nature of data set [1]: Human hepatocyte clearance study. The format is in vitro ADME. Particulars: pooled cryopreserved human hepatocytes (suspension); for hepatocyte CLint at 1 µM / half-life at 1 µM: human; for hepatocyte CLint at 1 µM: read-out: Human In vitro Clint; for half-life at 1 µM: read-out: Human In vitro T1/2; for CLint scaled at 1 µM: human hepatocytes, scaling factor 2544.3, read-out: Human Scale-up Clint. As for the experimental part: as §1

Each structure is given as a SMILES string. A value given as a limit tells only on which side of the number the result lay.

Sequence of TGFβR1 (P36897 34-503): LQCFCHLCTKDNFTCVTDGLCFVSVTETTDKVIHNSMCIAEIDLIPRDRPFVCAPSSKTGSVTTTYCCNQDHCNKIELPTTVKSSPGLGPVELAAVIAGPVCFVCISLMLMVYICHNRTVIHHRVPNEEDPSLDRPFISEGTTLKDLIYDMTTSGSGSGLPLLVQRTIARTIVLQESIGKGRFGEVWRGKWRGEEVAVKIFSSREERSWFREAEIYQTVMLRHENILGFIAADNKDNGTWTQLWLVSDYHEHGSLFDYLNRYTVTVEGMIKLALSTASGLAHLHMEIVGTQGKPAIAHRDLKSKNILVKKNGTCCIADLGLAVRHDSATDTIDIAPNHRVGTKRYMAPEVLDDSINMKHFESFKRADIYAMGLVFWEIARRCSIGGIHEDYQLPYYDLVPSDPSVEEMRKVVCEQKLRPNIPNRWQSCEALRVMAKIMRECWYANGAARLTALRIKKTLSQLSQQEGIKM
Sequence of TGFβR2 (P37173 23-567): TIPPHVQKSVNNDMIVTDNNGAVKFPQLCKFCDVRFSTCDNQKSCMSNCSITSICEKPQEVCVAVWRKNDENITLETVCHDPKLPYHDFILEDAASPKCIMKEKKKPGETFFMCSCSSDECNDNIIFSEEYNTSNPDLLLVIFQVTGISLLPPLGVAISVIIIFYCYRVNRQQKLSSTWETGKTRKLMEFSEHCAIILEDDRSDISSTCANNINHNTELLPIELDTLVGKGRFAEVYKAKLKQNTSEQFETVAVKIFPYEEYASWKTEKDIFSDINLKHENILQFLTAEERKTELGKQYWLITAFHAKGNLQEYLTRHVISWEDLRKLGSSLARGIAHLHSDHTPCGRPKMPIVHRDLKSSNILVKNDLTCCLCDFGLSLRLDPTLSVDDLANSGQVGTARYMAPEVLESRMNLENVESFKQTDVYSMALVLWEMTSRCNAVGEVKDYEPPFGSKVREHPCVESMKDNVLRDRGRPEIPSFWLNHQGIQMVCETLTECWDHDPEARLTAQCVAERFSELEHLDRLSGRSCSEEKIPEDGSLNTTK

In turn, `CC(C)(O)c1cc(Nc2cc(Oc3cc(C(F)(F)F)nn3-c3ccccn3)ccn2)ccn1` [Compound 41] displayed a Papp A→B at 2 h, 1 µM with P-glycoprotein (MDR1) (MDCK-MDR1, 1 μM, apical to basolateral, two hours) of 3.63 ×10⁻⁶ cm/s. For the same compound, the Papp B→A at 2 h, 1 µM in the data set with P-glycoprotein (MDR1) (MDCK-MDR1, 1 μM, basolateral to apical, two hours) is 4.88 ×10⁻⁶ cm/s. Moreover, the efflux ratio at 2 h, 1 µM in the data set on P-glycoprotein (MDR1) (MDCK-MDR1, Papp (B-A)/Papp (A-B)) was found to be 1.35. For the same compound, the 50% inhibitory concentration (IC50) was found to be 12 nM on TGFβR1 and 15000 nM against TGFβR2.
Compound `CC(C)(O)c1cc(Nc2cc(Oc3cccnc3C3CCOCC3)ccn2)ccn1` [Compound 54] gave a half-maximal inhibitory concentration (IC50) against TGFβR1 of 56 nM. The IC50 on TGFβR2 was > 100000 nM. Also, the “Human Hepatocyte Remaining Percentage @ 120 min” value with pooled human hepatocytes stood at 61%. Besides, in data set [1], the hepatocyte CLint at 1 µM came out at 6.8 µL/min/1e6 cells, the half-life at 1 µM was 3.38 h and the CLint scaled at 1 µM is 17.4 mL/min/kg.
In turn, `Cn1nc(C(F)(F)F)cc1Oc1ccnc(Nc2ccnc(C(C)(C)O)c2)c1` [Compound 23] showed a concentration for half-maximal inhibition (IC50) at TGFβR1 of 38 nM. Also, the “Human Hepatocyte Remaining Percentage @ 120 min” value with pooled human hepatocytes was 88%. Moreover, in data set [1], the hepatocyte CLint at 1 µM was determined as 2.2 µL/min/1e6 cells, the half-life at 1 µM came out at 10.4 h and the CLint scaled at 1 µM turned out to be 5.6 mL/min/kg.
`NS(=O)(=O)c1ccc(Nc2cc(Oc3cc(C4CC4)nn3C3CC3)ccn2)cc1` [Compound 13] showed a half-inhibitory concentration (IC50) against TGFβR1 of 44 nM. For the same compound, the IC50 at TGFβR2 was > 100000 nM. In addition, the “Human Hepatocyte Remaining Percentage @ 120 min” value with pooled human hepatocytes was 65%. Moreover, in data set [1], the hepatocyte CLint at 1 µM is 7.5 µL/min/1e6 cells, the half-life at 1 µM stood at 3.08 h and the CLint scaled at 1 µM stood at 19 mL/min/kg.
As for `CC(C)(O)c1cc(Nc2cc(Oc3cn(CC(F)(F)F)nc3C3CCOCC3)ccn2)ccn1` [Compound 69], the half-inhibitory concentration (IC50) was 454 nM against TGFβR1 and > 100000 nM against TGFβR2.
The like results for `CC(C)(O)c1ccc(Nc2cc(Oc3cc(C(F)(F)F)nn3-c3ccccc3F)ccn2)cn1` [Compound 52] were, in that order, 21 nM and 16000 nM.
Regarding `CC(C)(O)c1cc(Nc2cc(Oc3cc(C(F)(F)F)nn3-c3ccccc3F)ccn2)ccn1` [Compound 38], the IC50 was found to be 18 nM on TGFβR1 and 15000 nM at TGFβR2.
Regarding `CC(C)(O)c1cc(Nc2cc(Oc3cc(C4CC4)nn3CC(F)(F)F)ccn2)ccn1` [Compound 21], the half-inhibitory concentration (IC50) against TGFβR1 was 37 nM; on TGFβR2, > 100000 nM.
`NS(=O)(=O)c1ccc(Nc2cc(Oc3cc(C(F)(F)F)nn3C3CCOCC3)ccn2)cc1` [Compound 12] returned a half-maximal inhibitory concentration (IC50) at TGFβR1 of 28 nM. Also, the IC50 at TGFβR2 was > 100000 nM. Besides, the “Human Hepatocyte Remaining Percentage @ 120 min” value in the data set with pooled human hepatocytes is recorded as 64%. Moreover, in data set [1], the hepatocyte CLint at 1 µM was 7.7 µL/min/1e6 cells, the half-life at 1 µM came out at 3 h and the CLint scaled at 1 µM was found to be 19.6 mL/min/kg.
Regarding `Cc1ccc(Oc2ccnc(Nc3ccnc(C(C)(C)O)c3)c2)c(C2CCOCC2)n1` [Compound 55], the IC50 against TGFβR1 was determined as 35 nM; at TGFβR2, 15000 nM.
The like results for `Cc1ccc(Oc2ccnc(Nc3ccnc(C(C)(C)O)c3)c2)c(C2CC2)n1` [Compound 58] were, in that order, 39 nM and 11000 nM.
For `CC(C)(O)c1cc(Nc2cc(Oc3cc(C4CC4)nn3C3CCOCC3)ncn2)ccn1` [Compound 3], the half-inhibitory concentration (IC50) is 825 nM at TGFβR1 and > 100000 nM against TGFβR2.
As for `CC(C)(O)c1cc(Nc2cc(Oc3cc(C4CC4)nn3[C@H]3C[C@H]4CC[C@@H](C3)O4)ccn2)ccn1` [Compound 28], the IC50 against TGFβR1 was 35 nM; against TGFβR2, 36000 nM.
As for `CC(C)(O)c1cc(Nc2cc(Oc3cc(C4CC4)nn3[C@@H]3C[C@H]4CC[C@@H](C3)O4)ccn2)ccn1` [Compound 29], the 50% inhibitory concentration (IC50) is 19 nM at TGFβR1 and 89000 nM against TGFβR2.
For `CC(C)(O)c1cc(Nc2cc(Oc3cn(C4CCCC4)nc3C3CCOCC3)ccn2)ccn1` [Compound 68], the IC50 at TGFβR1 was 631 nM; against TGFβR2, > 100000 nM.
For the compound `Cc1ccc(-n2nc(C(F)(F)F)cc2Oc2ccnc(Nc3ccnc(C(C)(C)O)c3)c2)cc1` [Compound 34], the results for the 50% inhibitory concentration (IC50) on TGFβR1 and against TGFβR2 were 42 nM and 17000 nM, respectively.
Regarding `CC(C)(O)c1cc(Nc2cc(Oc3cc(C(F)(F)F)nn3C(C)(C)C)ccn2)ccn1` [Compound 16], the IC50 turned out to be 34 nM at TGFβR1 and 34000 nM at TGFβR2.
For `CC(C)(O)c1cc(Nc2cc(Oc3cc(C(F)F)nn3C3CCOCC3)ccn2)ccn1` [Compound 8] the same measures were 173 nM and > 100000 nM.
As for `CC(C)(C)n1nc(C2CC2)cc1Oc1ccnc(Nc2ccc(S(N)(=O)=O)cc2)c1` [Compound 15], the IC50 at TGFβR1 was 94 nM; on TGFβR2 it was > 100000 nM.
